Each structure is given as a SMILES string.

One assay addresses T1, human GPR119 receptor (Homo sapiens, UniProt Q8TDV5, S329A/T327A).
T1 construct: N-terminal leader […]; expressed in transfected cells
T1 sequence (Q8TDV5 with tags, fused parts or gaps T327A/S329A): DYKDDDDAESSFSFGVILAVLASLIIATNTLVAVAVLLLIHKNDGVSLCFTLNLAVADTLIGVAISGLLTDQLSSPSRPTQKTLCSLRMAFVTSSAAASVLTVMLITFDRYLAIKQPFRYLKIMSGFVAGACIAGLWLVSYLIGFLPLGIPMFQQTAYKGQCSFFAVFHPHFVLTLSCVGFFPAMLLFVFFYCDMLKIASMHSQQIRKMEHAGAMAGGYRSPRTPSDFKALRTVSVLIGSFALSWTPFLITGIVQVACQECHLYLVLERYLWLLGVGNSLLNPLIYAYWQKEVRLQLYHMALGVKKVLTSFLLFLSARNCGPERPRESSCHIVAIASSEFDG
Description: cAMP assay (LANCE cAMP-384) in HEK293 cells stably expressing mutant human GPR119 receptor. In kind it is cell-based. The following applies: HEK293, 20 min; 10 μM; the 28th table; read-out: stimulation in % at 10 μM. Summed up:
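Agonist EC50 came from nonlinear regression over 12 concentrations (30 μM–100 pM), with % stimulation at 10 μM where no EC50 was obtained. Cells: stable HEK293 with mutant human GPR119 (T327A/S329A), 20 min compound at 37° C; cAMP read by LANCE kit with standard curve.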
Take `CC(C)OC(=O)N1CCC(ON=C2CCN(c3ncc(N4CCCC4=O)cn3)CC2)CC1` [Example 51-6]: the activation at 10 µM stood at 98%.

The assay is the same for the next values; noted with them: HEK293, 20 min; at 10 μM; printed in EC50 column of the 36th table; read-out: stimulation in % at 10 μM.
Consider `CS(=O)(=O)c1ccc(N2CCC(=NOC3CCN(Cc4cccnc4Cl)CC3)CC2)c(F)c1` [Example 66-51], for which the activation at 10 µM came to 66%.

The assay is the same for the next values; noted with them: HEK293, 20 min; single concentration 10 μM; given where no EC50 value could be determined; read-out: % stimulation at 10 μM.
On to `CC(C)OC(=O)N1CCC(ON=C2CCN(c3cc(F)c(CN4CCOCC4)cc3F)CC2)CC1` [Example 5-4], for which the activation at 10 µM amounted to 69%.

Regarding `COc1cccc(-c2cc(F)c(N3CCC(=NOC4CCN(C(=O)OC(C)C)CC4)CC3)cc2F)n1` [Example 27-11], the activation at 10 µM was determined as 80%.

In the case of `COc1ncc(-c2cc(F)c(N3CCC(=NOC4CCN(C(=O)OC(C)C)CC4)CC3)cc2F)c(OC)n1` [Example 27-31], the activation at 10 µM is 70%.

The assay is the same for the next values; noted with them: cAMP accumulation, HEK293 cells stably expressing mutant human GPR119; read-out: EC50.
Regarding `COCc1cc(F)c(N2CCC(=NOC3CCN(C(=O)OC(C)C)CC3)CC2)cc1F` [Example 49-1, 4-[1-(2,5-Difluoro-4-methoxymethyl-phenyl)-piperidin-4-ylideneaminooxy]-piperidine-1-carboxylic acid isopropyl ester], the EC50 worked out at 265 nM.

`CC(C)OC(=O)N1CCC(ON=C2CCN(c3cc(F)c(C#N)cc3F)CC2)CC1` [Example 2-2]: the EC50 is 397 nM.

Regarding `CC(C)OC(=O)N1CCC(ON=C2CCN(c3ncccc3F)CC2)CC1` [Example 2-37], the EC50 was found to be 630 nM.

Turning to `CC(C)OC(=O)N1CCC(ON=C2CCN(c3cc(F)c(-c4cnco4)cc3F)CC2)CC1` [Example 20-1, 4-[1-(2,5-Difluoro-4-oxazol-5-yl-phenyl)-piperidin-4-ylideneaminooxy]-piperidine-1-carboxylic acid isopropyl ester], the EC50 was 100 nM.

As for `CC(C)OC(=O)N1CCC(ON=C2CCN(c3ccc(F)c(F)n3)CC2)CC1` [Example 2-71], the EC50 is 2590 nM.

For the compound `CC(C)OC(=O)N1CCC(ON=C2CCN(c3nc(Cl)ncc3F)CC2)CC1` [Example 2-73], the EC50 is 110 nM.

With `CC(C)OC(=O)N1CCC(ON=C2CCN(c3cc(F)c(CS(C)(=O)=O)cc3F)CC2)CC1` [Example 13-1, 4-[1-(2,5-Difluoro-4-methanesulfonylmethyl-phenyl)-piperidin-4-ylideneaminooxy]-piperidine-1-carboxylic acid isopropyl ester], the EC50 was found to be 30 nM.

`CCOC(=O)NCc1cc(F)c(N2CCC(=NOC3CCN(C(=O)OC(C)C)CC3)CC2)cc1F` [Example 16-4]: the EC50 was 70 nM.

As to `CC(C)OC(=O)N1CCC(ON=C2CCN(c3cc(F)c(CNS(N)(=O)=O)cc3F)CC2)CC1` [Example 17-1], the EC50 amounted to 312 nM.

With `CC(C)OC(=O)N1CCC(ON=C2CCN(c3cc(F)c(C=O)cc3F)CC2)CC1` [Example 2-3], the EC50 came out at 14 nM.

For the compound `CCOC(=O)Nc1cc(F)c(N2CCC(=NOC3CCN(C(=O)OC(C)C)CC3)CC2)cc1F` [Example 35-2], the EC50 turned out to be 18 nM.

Consider `CC(C)OC(=O)N1CCC(ON=C2CCN(c3ncc(Br)c(N(C)C)n3)CC2)CC1` [Example 2-54], for which the EC50 was more than 10000 nM.

As for `CC(C)OC(=O)N1CCC(ON=C2CCN(c3nc(F)ccc3F)CC2)CC1` [Example 2-70], the EC50 came out at 3260 nM.

As to `CC(=O)NCc1cc(F)c(N2CCC(=NOC3CCN(C(=O)OC(C)C)CC3)CC2)cc1F` [Example 16-2], the EC50 amounted to 141 nM.

Consider `Cc1cccc(N2CCC(=NOC3CCN(C(=O)OC(C)C)CC3)CC2)n1` [Example 2-8], for which the EC50 is more than 10000 nM.

As to `CC(C)OC(=O)N1CCC(ON=C2CCN(c3cc(F)c(Br)cc3F)CC2)CC1` [Example 2-40], the EC50 worked out at 2000 nM.

Turning to `CC(C)OC(=O)N1CCC(ON=C2CCN(c3cc(F)c(CN(C)CCCC(=O)O)cc3F)CC2)CC1` [Example 5-10], the EC50 is more than 10000 nM.

In the case of `CC(C)OC(=O)N1CCC(ON=C2CCN(c3ccc(I)cn3)CC2)CC1` [Example 2-12], the EC50 stood at 2360 nM.

On to `CC(C)OC(=O)N1CCC(ON=C2CCN(c3cc(F)c(-c4cccnc4)cc3F)CC2)CC1` [Example 27-4], for which the EC50 was found to be 182 nM.

The assay is the same for the next values; noted with them: the 15th table; read-out: EC50.
Take `CC(C)OC(=O)N1CCC(ON=C2CCN(c3cc(F)c(C(=O)N4CCN(C)CC4)cc3F)CC2)CC1` [Example 29-4]: the EC50 is 80 nM.

As for `CC(C)OC(=O)N1CCC(ON=C2CCN(c3cc(F)c(C(=O)NCCO)cc3F)CC2)CC1` [Example 29-11], the EC50 worked out at 84 nM.

The assay is the same for the next values; noted with them: the 19th table; unit inferred; read-out: EC 50.
With `CCc1cnc(N2CCC(ON=C3CCN(c4cc(F)c(C(=O)N5C[C@H]6CNC[C@H]6C5)cc4F)CC3)CC2)nc1` [Example 29-111], the EC50 is 295 nM.

`CCc1cnc(N2CCC(ON=C3CCN(c4cc(F)c(C(=O)N5CCCCC5CN)cc4F)CC3)CC2)nc1` (centres unmarked) [Example 29-131]: the EC50 is 64 nM.

The same assay, now with this note: the 26th table; read-out: EC50.
In the case of `CC(C)OC(=O)N1CCC(ON=C2CCN(c3ncc(S(C)(=O)=O)cc3F)CC2)CC1` [Example 46-1, 4 (5′-METHYLSULFONYL-3′-FLUORO-2,3,5,6-TETRAHYDRO-[1,2′]BIPYRIDINYL-4-YLIDENEAMINOOXY)-PIPERIDINE-1-CARBOXYLIC ACID ISOPROPYL ESTER], the EC50 stood at 131 nM.

Staying with this assay, now noted: the 29th table; read-out: EC50.
For `CC(C)OC(=O)N1CCC(ON=C2CCN(c3ccc(CO)cc3F)CC2)CC1` [Example 52-3], the EC50 amounted to 128 nM.

The same assay, now with this note: the 30th table; read-out: EC50.
Take `CC(C)OC(=O)N1CCC(ON=C2CCN(c3ncc(Cn4nccn4)cc3F)CC2)CC1` [Example 54-3]: the EC50 came to 765 nM.

Staying with this assay, now noted: the 32nd table; read-out: EC50.
As for `CCOC(=O)c1ccc(N2CCC(ON=C3CCN(c4ccc(S(C)(=O)=O)cc4F)CC3)CC2)nc1` [Example 63-26], the EC50 was more than 10000 nM.

Regarding `Cc1cccc(N2CCC(ON=C3CCN(c4ccc(S(C)(=O)=O)cc4F)CC3)CC2)n1` [Example 63-2], the EC50 turned out to be 1250 nM.

Regarding `CS(=O)(=O)c1ccc(N2CCC(=NOC3CCN(c4nccs4)CC3)CC2)c(F)c1` [Example 63-7], the EC50 was determined as 447 nM.

The same assay, now with this note: the 33rd table; read-out: EC50.
Take `CC1CC1COC(=O)N1CCC(ON=C2CCN(c3ccc(S(C)(=O)=O)cc3F)CC2)CC1` (centres unmarked) [Example 64-8]: the EC50 is 32 nM.

Regarding `CN1CCCC(OC(=O)N2CCC(ON=C3CCN(c4ccc(S(C)(=O)=O)cc4F)CC3)CC2)C1` (centres unmarked) [Example 64-19], the EC50 is more than 10000 nM.

With `CN1CCC(OC(=O)N2CCC(ON=C3CCN(c4ccc(S(C)(=O)=O)cc4F)CC3)CC2)C1` (centres unmarked) [Example 64-13], the EC50 is more than 10000 nM.

Consider `CS(=O)(=O)c1ccc(N2CCC(=NOC3CCN(C(=O)OCCN4CCCCC4)CC3)CC2)c(F)c1` [Example 64-28], for which the EC50 was more than 10000 nM.

Turning to `CC(C)CCOC(=O)N1CCC(ON=C2CCN(c3ccc(S(C)(=O)=O)cc3F)CC2)CC1` [Example 64-40], the EC50 was 89 nM.

On to `CCC(C)COC(=O)N1CCC(ON=C2CCN(c3ccc(S(C)(=O)=O)cc3F)CC2)CC1` (centres unmarked) [Example 64-47], for which the EC50 amounted to 43 nM.

Still in this assay, the particulars now being: the 34th table, compounds 65-1 to 65-24; read-out: EC50.
In the case of `CCN(CC)C(=O)CN1CCC(ON=C2CCN(c3ccc(S(C)(=O)=O)cc3F)CC2)CC1` [Example 65-1, N,N-Diethyl-2-{4-[1-(2-fluoro-4-methanesulfonyl-phenyl)-piperidin-4-ylideneaminooxy]-piperidin-1-yl}-acetamide], the EC50 was more than 10000 nM.

Take `CS(=O)(=O)c1ccc(N2CCC(=NOC3CCN(C(=O)c4ccc(F)cc4)CC3)CC2)c(F)c1` [Example 65-22]: the EC50 is 132 nM.

Still in this assay, the particulars now being: the 36th table, compounds 66-1 to 66-51; read-out: EC50.
As to `Cc1nc[nH]c1CN1CCC(ON=C2CCN(c3ccc(S(C)(=O)=O)cc3F)CC2)CC1` [Example 66-9], the EC50 is more than 10000 nM.

As to `COc1ccc(CN2CCC(ON=C3CCN(c4ccc(S(C)(=O)=O)cc4F)CC3)CC2)cc1F` [Example 66-38], the EC50 turned out to be 435 nM.

For the compound `CC(C)Oc1ccc(CN2CCC(ON=C3CCN(c4ccc(S(C)(=O)=O)cc4F)CC3)CC2)cc1` [Example 66-40], the EC50 is 332 nM.

Still in this assay, the particulars now being: the 37th table, compounds 66-52 to 66-64; read-out: EC50.
On to `CCc1ccc(CN2CCC(ON=C3CCN(c4cc(F)c(S(C)(=O)=O)cc4F)CC3)CC2)cc1` [Example 66-55], for which the EC50 amounted to 37 nM.

On to `CS(=O)(=O)c1cc(F)c(N2CCC(=NOC3CCN(Cc4ccc(-c5ccccn5)cc4)CC3)CC2)cc1F` [Example 66-52], for which the EC50 was found to be 926 nM.

Regarding `CS(=O)(=O)c1cc(F)c(N2CCC(=NOC3CCN(Cc4ccc(Cl)cc4)CC3)CC2)cc1F` [Example 66-56], the EC50 amounted to 50 nM.

The assay is the same for the next values; noted with them: the 43rd table, compounds 75-1 to 75-38; read-out: EC50.
Regarding `CC(C)OC(=O)N1CCC(ON=C2CCN(c3cc(F)c(CC(=O)N4CCCCC4CN(C)C)cc3F)CC2)CC1` (centres unmarked) [Example 75-36], the EC50 stood at 322 nM.

The assay is the same for the next values; noted with them: the 44th table, compounds 77-1 to 77-14; read-out: EC50.
`CCc1cnc(N2CCC(ON=C3CCN(c4cc(F)c(CC(=O)NC5CCN(C)CC5)cc4F)CC3)CC2)nc1` [Example 77-1, 2-(4-{4-[1-(5-ethyl-pyrimidin-2-yl)-piperidin-4-yloxyimino]-piperidin-1-yl}-2,5-difluoro-phenyl)-N-(1-methyl-piperidin-4-yl)-acetamide]: the EC50 turned out to be 76 nM.

Source of the values: patent US8293729B2 (Boehringer Ingelheim International GmbH, priority 2009, dated 2012).
